In patent US20240150293A1, “SPIROCYCLOHEXANE DERIVATIVES, PHARMACEUTICAL COMPOSITIONS CONTAINING THEM AND THEIR USES AS ANTI-APOPTOTIC INHIBITORS” (LES LABORATOIRES SERVIER, priority 2021, published 2024) one finds Ki data, which are given here for eleven molecules.

The target of the test is Mcl-1 protein (UniProtKB Q07820) (Homo sapiens (Human), UniProt Q07820). Put plainly: Inhibition of Mcl-1 by the fluorescence polarisation assay (Example A, Method A). Type of test: binding. The settings on record: fluorescence polarization assay. In short, it runs like this: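 Protein (5 nM) and fluorescein-tagged peptide tracer (1 nM) incubated with 11-point compound series for 2 h at room temperature in HEPES/NaCl/Tween 20 buffer, pH 7.4, 5% DMSO. Displacement read as decrease in polarisation; IC50 fitted by 4-parameter logistic, converted to Ki (cKi or eKi).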
Chain of Mcl-1 protein (Q07820 whole entry): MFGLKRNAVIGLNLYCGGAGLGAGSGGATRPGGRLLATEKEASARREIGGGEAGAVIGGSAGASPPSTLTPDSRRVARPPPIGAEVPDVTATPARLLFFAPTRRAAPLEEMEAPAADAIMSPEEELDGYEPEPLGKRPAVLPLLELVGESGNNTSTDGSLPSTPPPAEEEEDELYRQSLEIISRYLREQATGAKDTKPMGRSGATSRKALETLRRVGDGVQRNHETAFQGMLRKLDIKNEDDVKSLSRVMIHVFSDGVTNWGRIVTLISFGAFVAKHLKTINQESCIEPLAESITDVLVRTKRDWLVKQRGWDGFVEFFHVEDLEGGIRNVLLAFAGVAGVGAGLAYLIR
In general terms: Fluorescence polarisation rises when a labelled molecule tumbles more slowly, as on binding a larger partner.

As a reminder, the Ki is a dissociation constant, usually derived from enzyme kinetics or from competition with a known ligand. In the case of `O=C(O)[C@]1(Nc2cccc(Cl)c2)CC[C@]2(CC1)C(CCCOc1cccc3[nH]ccc13)=Cc1ccccc12` [Example 434, (1r,4r)-4-(3-chloroanilino)-2′-{3-[(1H-indol-4-yl)oxy]propyl}spiro[cyclohexane-1,1′-indene]-4-carboxylic acid], the Ki stood at 93.5 nM.
`O=C1CCc2c(OCCCC3Cc4ccccc4[C@]34CC[C@@](Nc3cccc(Cl)c3)(C(=O)O)CC4)cccc21` (some centres unmarked) [Example 435, (1r,4r)-4-(3-chloroanilino)-2′-{3-[(1-oxo-2,3-dihydro-1H-inden-4-yl)oxy]propyl}-2′,3′-dihydrospiro[cyclohexane-1,1′-indene]-4-carboxylic acid]: the Ki came out at 555 nM.
Next, `Cc1cc(OCCCC2Cc3ccccc3C23CCC(Nc2cccc(Cl)c2)(C(=O)O)CC3)cc(C)c1Cl` (centres unmarked) [Example 436, (1r,4r)-4-(3-chloroanilino)-2′-[3-(4-chloro-3,5-dimethylphenoxy)propyl]-2′,3′-dihydrospiro[cyclohexane-1,1′-indene]-4-carboxylic acid]: 918 nM; `O=C(O)C1(Nc2cccc(Cl)c2)CCC2(CC1)c1ccccc1CC2CCCOc1ncnc2ccsc12` (centres unmarked) [Example 437, (1r,4r)-4-(3-chloroanilino)-2′-{3-[(thieno[3,2-d]pyrimidin-4-yl)oxy]propyl}-2′,3′-dihydrospiro[cyclohexane-1,1′-indene]-4-carboxylic acid]: 77.6 nM.
`COc1cncnc1OCCCC1Cc2ccccc2[C@]12CC[C@@](Nc1cccc(Cl)c1)(C(=O)O)CC2` (some centres unmarked) [Example 438, (1r,4r)-4-(3-chloroanilino)-2′-{3-[(5-methoxypyrimidin-4-yl)oxy]propyl}-2′,3′-dihydrospiro[cyclohexane-1,1′-indene]-4-carboxylic acid]: the Ki was determined as 202 nM.
Turning to `Cc1cncnc1OCCCC1Cc2ccccc2[C@]12CC[C@@](Nc1cccc(Cl)c1)(C(=O)O)CC2` (some centres unmarked) [Example 441, (1r,4r)-4-(3-chloroanilino)-2′-{3-[(5-methylpyrimidin-4-yl)oxy]propyl}-2′,3′-dihydrospiro[cyclohexane-1,1′-indene]-4-carboxylic acid], the Ki was determined as 69.1 nM.
Consider `O=C(O)[C@]1(Nc2cccc(Cl)c2)CC[C@@]2(CC1)c1ccccc1CC2CCCOc1ccccc1C(F)(F)F` (some centres unmarked) [Example 443, (1r,4r)-4-(3-chloroanilino)-2′-{3-[2-(trifluoromethyl)phenoxy]propyl}-2′,3′-dihydrospiro[cyclohexane-1,1′-indene]-4-carboxylic acid], for which the Ki was found to be 106 nM.
Take `Cc1cc2nccc(OCCCC3Cc4ccccc4[C@]34CC[C@@](Nc3cccc(Cl)c3)(C(=O)O)CC4)c2s1` (some centres unmarked) [Example 446, (1r,4r)-4-(3-chloroanilino)-2′-{3-[(2-methylthieno[3,2-b]pyridin-7-yl)oxy]propyl}-2′,3′-dihydrospiro[cyclohexane-1,1′-indene]-4-carboxylic acid]: the inhibition constant (Ki) was 134 nM.
With `O=C(O)[C@]1(Nc2cccc(Cl)c2)CC[C@@]2(CC1)c1ccccc1CC2CCCOc1ccnc2ccoc12` (some centres unmarked) [Example 447, (1r,4r)-4-(3-chloroanilino)-2′-{3-[(furo[3,2-b]pyridin-7-yl)oxy]propyl}-2′,3′-dihydrospiro[cyclohexane-1,1′-indene]-4-carboxylic acid], the inhibition constant Ki turned out to be 127 nM.
As to `O=C(O)[C@]1(Nc2cccc(Cl)c2)CC[C@@]2(CC1)c1ccccc1CC2CCCOc1cncnc1` (some centres unmarked) [Example 450, (1r,4r)-4-(3-chloroanilino)-2′-{3-[(pyrimidin-5-yl)oxy]propyl}-2′,3′-dihydrospiro[cyclohexane-1,1′-indene]-4-carboxylic acid], the Ki was found to be 781 nM.
With `O=C(O)[C@]1(Nc2cccc(Br)c2)CC[C@]2(CC1)C(CCCOc1ccnc3ccsc13)=Cc1ccccc12` [Example 454, (1r,4r)-4-(3-bromoanilino)-2′-{3-[(thieno[3,2-b]pyridin-7-yl)oxy]propyl}spiro[cyclohexane-1,1′-indene]-4-carboxylic acid], the Ki amounted to 141 nM.
